What follows are compounds tested on Palmitoyl CoA oxidation in rat heart mitochondria (assay: Mitochondrial assay: Palmitoyl CoA oxidation). Settings: 16 microM 1-C14 palmitoyl CoA, 15 min at 30° C., read-out: Effect of Compounds of the Invention on Palmitoyl CoA Oxidation (IC50).
Format: biochemical
Method: Rat heart mitochondria were isolated by the method of Nedergard and Cannon (Methods in Enzymol. 55, 3, 1979).
Palmitoyl CoA oxidation—The Palmitoyl CoA oxidation was carried out in a total volume of 100 micro liters containing the following agents: 110 mM KCl, 33 mM Tris buffer at pH 8, 2 mM KPi, 2 mM MgCl2, 0.1 mM EDTA, 14.7 microM defatted BSA, 0.5 mM malic acid, 13 mM carnitine, 1 mM ADP, 52 micrograms of mitochondrial protein, and 16 microM 1-C14 palmitoyl CoA (Sp. Activity 60 mCi/mmole; 20 microCi/ml, using 5 microliters per assay). The compounds of this invention were added in a DMSO solution at the following concentrations: 100 micro molar, 30 micro molar, and 3 micro molar. In each assay, a DMSO control was used. After 15 min at 30° C., the enzymatic reaction was centrifuged (20,000 g for 1 min), and 70 microliters of the supernatant was added to an activated reverse phase silicic acid column (approximately 0.5 ml of silicic acid). The column was eluted with 2 ml of water, and 0.5 ml of the eluent was used for scintillation counting to determine the amount of C^14 trapped as C^14 bicarbonate ion.
“3-{(2R)-2-methyl-4-[(5-phenylisoxazol-3-yl)methyl]piperazinyl}(2S)-1-(2-methylbenzothiazol-5-yloxy)propan-2-ol” gave an IC50 of 0.44 µM.
With `Cc1nc2cc(OC[C@H](O)CN3CCN(Cc4nc(-c5ccc(Cl)cc5Cl)no4)C[C@@H]3C)ccc2s1` [(2R)-1-((2S)-4-{[3-(2,4-dichlorophenyl)(1,2,4-oxadiazol-5-yl)]methyl}-2-methylpiperazinyl)-3-(2-methylbenzothiazol-5-yloxy)propan-2-ol] the IC50 was 0.1 µM.
For `Cc1nc2cc(OC[C@H](O)CN3CCN(Cc4nnc(-c5ccc(C(F)(F)F)cc5)o4)C[C@@H]3C)ccc2s1` [(2R)-1-[(2S)-2-methyl-4-({5-[4-(trifluoromethyl)phenyl](1,3,4-oxadiazol-2-yl)}methyl)piperazinyl]-3-(2-methylbenzothiazol-5-yloxy)propan-2-ol], the IC50 was 0.53 µM.
`Cc1nc2cc(OC[C@H](O)CN3CCN(Cc4nc5cc(-c6ccccc6)ccc5o4)CC3)ccc2s1` [(2R)-3-(2-methylbenzothiazol-5-yloxy)-1-{4-[(5-phenylbenzoxazol-2-yl)methyl]piperazinyl}propan-2-ol] was tested, and the IC50 was 3.6 µM.
For `Cc1nc2cc(OC[C@H](O)CN3CCN(Cc4cc(-c5ccc(Cl)cc5)on4)C[C@@H]3C)ccc2s1` [(2R)-3-[(2S)-2-methyl-4-({5-[4-chlorophenyl]isoxazol-3-yl}methyl)piperazinyl]-1-(2-methylbenzothiazol-5-yloxy)propan-2-ol], the IC50 was 0.14 µM.
“(2R)-1-(4-{[3-(2,4-dichlorophenyl)(1,2,4-oxadiazol-5-yl)]methyl}piperazinyl)-3-(2-methylbenzothiazol-5-yloxy)propan-2-ol” was tested, and the IC50 was 1.14 µM.
Work on “(2R)-1-(4-{[3-(2-chlorophenyl)(1,2,4-oxadiazol-5-yl)]methyl}piperazinyl)-3-(2-methylbenzothiazol-5-yloxy)propan-2-ol” yielded an IC50 of 1.34 µM.
“(2R)-1-(4-{[3-(2-fluorophenyl)(1,2,4-oxadiazol-5-yl)]methyl}piperazinyl)-3-(2-methylbenzothiazol-5-yloxy)propan-2-ol” showed an IC50 of 5.7 µM.
In the case of “(2R)-1-(4-{[5-(2-chlorophenyl)(1,2,4-oxadiazol-3-yl)]methyl}piperazinyl)-3-(2-methylbenzothiazol-5-yloxy)propan-2-ol”, the IC50 is reported as 1.14 µM.
Compound “(2R)-1-(4-{[5-(2-chlorophenyl)(1,3,4-oxadiazol-2-yl)]methyl}piperazinyl)-3-(2-methylbenzothiazol-5-yloxy)propan-2-ol” has an IC50 of 2.1 µM.
With “(2R)-1-(4-{[5-(4-chlorophenyl)(1,3,4-oxadiazol-2-yl)]methyl}piperazinyl)-3-(2-methylbenzothiazol-5-yloxy)propan-2-ol” the IC50 was 8.5 µM.
“(2R)-1-(4-{[5-(4-methoxyphenyl)(1,3,4-oxadiazol-2-yl)]methyl}piperazinyl)-3-(2-methylbenzothiazol-5-yloxy)propan-2-ol” showed an IC50 of 8.9 µM.
“(2R)-1-((2S)-2-methyl-4-{[5-(4-methylphenyl)(1,3,4-oxadiazol-2-yl)]methyl}piperazinyl)-3-(2-methylbenzothiazol-5-yloxy)propan-2-ol” showed an IC50 of 0.54 µM.
“(2R)-1-((2S)-2-methyl-4-{[5-(4-phenylphenyl)(1,3,4-oxadiazol-2-yl)]methyl}piperazinyl)-3-(2-methylbenzothiazol-5-yloxy)propan-2-ol” gave an IC50 of 1.18 µM.
For “(2R)-1-((2S)-4-{[5-(4-chlorophenyl)(1,3,4-oxadiazol-2-yl)]methyl}-2-methylpiperazinyl)-3-(2-methylbenzothiazol-5-yloxy)propan-2-ol”, the IC50 was 0.69 µM.
“(2R)-1-((3S)-4-{[2-(4-chlorophenyl)(1,3-thiazol-4-yl)]methyl}-3-methylpiperazinyl)-3-(2-methylbenzothiazol-5-yloxy)propan-2-ol” was tested, and the IC50 was 0.41 µM.
“(2R)-1-((3S)-4-{[5-(2,4-dichlorophenyl)(1,2,4-oxadiazol-3-yl)]methyl}-3-methylpiperazinyl)-3-(2-methylbenzothiazol-5-yloxy)propan-2-ol” gave an IC50 of 0.68 µM.
With “(2R)-1-[4-({5-[4-(tert-butyl)phenyl](1,3,4-oxadiazol-2-yl)}methyl)piperazinyl]-3-(2-methylbenzothiazol-5-yloxy)propan-2-ol” the IC50 was 1.1 µM.
With “(2R)-1-[(2S)-2-methyl-4-({5-[3-(trifluoromethyl)phenyl](1,3,4-oxadiazol-2-yl)}methyl)piperazinyl]-3-(2-methylbenzothiazol-5-yloxy)propan-2-ol” the IC50 was 1.05 µM.
Compound “(2R)-1-[(2S)-4-({5-[4-(dimethylamino)phenyl](1,3,4-oxadiazol-2-yl)}methyl)-2-methylpiperazinyl]-3-(2-methylbenzothiazol-5-yloxy)propan-2-ol” has an IC50 of 1.48 µM.
“(2R)-1-[(2S)-4-({5-[4-(tert-butyl)phenyl](1,3,4-oxadiazol-2-yl)}methyl)-2-methylpiperazinyl]-3-(2-methylbenzothiazol-5-yloxy)propan-2-ol” was tested, and the IC50 was 0.39 µM.
Work on “(2R)-1-[(3S)-3-methyl-4-({2-[4-(trifluoromethyl)phenyl](1,3-thiazol-4-yl)}methyl)piperazinyl]-3-(2-methylbenzothiazol-5-yloxy)propan-2-ol” yielded an IC50 of 0.21 µM.
Compound “(2R)-1-[(3S)-3-methyl-4-({5-[4-(trifluoromethyl)phenyl](1,2,4-oxadiazol-3-yl)}methyl)piperazinyl]-3-(2-methylbenzothiazol-5-yloxy)propan-2-ol” has an IC50 of 4.7 µM.
“(2R)-1-{(2S)-2-methyl-4-[(5-(2-naphthyl)(1,3,4-oxadiazol-2-yl))methyl]piperazinyl}-3-(2-methylbenzothiazol-5-yloxy)propan-2-ol” showed an IC50 of 1.15 µM.
With “(2R)-1-{(2S)-2-methyl-4-[(5-phenyl(1,3,4-oxadiazol-2-yl))methyl]piperazinyl}-3-(2-methylbenzothiazol-5-yloxy)propan-2-ol” the IC50 was 1.57 µM.
In the case of “(2R)-1-{(3S)-3-methyl-4-[(2-phenyl(1,3-thiazol-4-yl))methyl]piperazinyl}-3-(2-methylbenzothiazol-5-yloxy)propan-2-ol”, the IC50 is reported as 0.34 µM.
With “(2R)-3-(2-methylbenzothiazol-5-yloxy)-1-(4-{[3-(2-methylphenyl)(1,2,4-oxadiazol-5-yl)]methyl}piperazinyl)propan-2-ol” the IC50 was 0.23 µM.
“(2R)-3-(2-methylbenzothiazol-5-yloxy)-1-(4-{[5-(2-methylphenyl)(1,2,4-oxadiazol-3-yl)]methyl}piperazinyl)propan-2-ol” showed an IC50 of 1.17 µM.
“(2R)-3-(2-methylbenzothiazol-5-yloxy)-1-(4-{[5-(4-methylphenyl)(1,3,4-oxadiazol-2-yl)]methyl}piperazinyl)propan-2-ol” was tested, and the IC50 was 10.7 µM.
“(2R)-3-(2-methylbenzothiazol-5-yloxy)-1-(4-{[5-(4-phenylphenyl)(1,3,4-oxadiazol-2-yl)]methyl}piperazinyl)propan-2-ol” was tested, and the IC50 was 0.99 µM.
With “(2R)-3-(2-methylbenzothiazol-5-yloxy)-1-[4-({5-[3-(trifluoromethyl)phenyl](1,3,4-oxadiazol-2-yl)}methyl)piperazinyl]propan-2-ol” the IC50 was 6.3 µM.
“(2R)-3-(2-methylbenzothiazol-5-yloxy)-1-[4-({5-[4-(trifluoromethyl)phenyl](1,3,4-oxadiazol-2-yl)}methyl)piperazinyl]propan-2-ol” showed an IC50 of 4.8 µM.

Same assay, conditions: at 30 uM
With “(2R)-3-(2-methylbenzothiazol-5-yloxy)-1-[4-({5-[3-(trifluoromethyl)phenyl](1,2,4-oxadiazol-3-yl)}methyl)piperazinyl]propan-2-ol” the “Effect on Palmitoyl CoA Oxidation, % at 30 uM” value was 58% at 30 uM.

Reference: patent publication US7056924B2, “Substituted heterocyclic compounds” (CV Therapeutics, Inc., priority 2002, dated 2006)
